Patent US8278345B2, “Inhibitors of glutaminyl cyclase” (Probiodrug AG, priority 2006, dated 2012)
Where two headings read alike, the source gives them in different places.

Key:
hQC = hQC (Homo sapiens, UniProt Q16769); test: Inhibitor assay for glutaminyl cyclase activity (fluorometric, H-Gln-βNA / H-Gln-AMC); type: biochemical
In short: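 Coupled fluorometric assay at 30 °C with pyroglutamyl aminopeptidase, in Tris/HCl pH 8.0 with EDTA, substrate H-Gln-βNA (0.2 mM; ex/em 320/410 nm) or H-Gln-AMC (ex/em 380/460 nm), initiated by QC. Screening: 4 mM inhibitor, substrate at 1 KM; Ki from progress curves fitted to competitive inhibition.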

[1] = compound from preparative synthesis, purified
[2] = compound from preparative synthesis, purified, read-out: IC50 hQC

Sequence of hQC (Q16769 29-361): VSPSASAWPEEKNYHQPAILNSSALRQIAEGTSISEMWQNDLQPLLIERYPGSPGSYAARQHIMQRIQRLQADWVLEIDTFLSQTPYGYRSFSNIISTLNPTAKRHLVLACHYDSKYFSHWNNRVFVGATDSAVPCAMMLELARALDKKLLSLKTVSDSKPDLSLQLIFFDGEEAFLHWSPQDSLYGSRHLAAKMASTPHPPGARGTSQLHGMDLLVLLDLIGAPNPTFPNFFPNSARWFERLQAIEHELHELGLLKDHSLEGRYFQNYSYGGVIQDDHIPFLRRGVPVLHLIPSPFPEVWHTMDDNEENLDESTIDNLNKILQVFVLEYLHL

SMILES	melting point	Ki (hQC; [1])	IC50 (hQC; read-out: IC50)	IC50 (hQC; [2])
O=C1C(O)=C(c2ccccc2)C(c2cnc3ccccc3c2)N1c1ccc2[nH]cnc2c1 (stereo not drawn) [Compound 420, 1-(1H-Benzoimidazol-5-yl)-3-hydroxy-4-phenyl-5-quinolin-3-yl-1,5-dihydro-pyrrol-2-one]	108 °C		4 nM	32 nM
O=C(C1=C(O)C(=O)N(c2ccc3[nH]cnc3c2)C1c1ccc2nonc2c1)C1CC1 (stereo not drawn) [Compound 440, 1-(1H-Benzoimidazol-5-yl)-5-benzo[c][1,2,5]oxadiazol-5-yl-4-cyclopropanecarbonyl-3-hydroxy-1,5-dihydro-pyrrol-2-one]	170 °C		4 nM	11.4 nM
CC(=O)C1=C(O)C(=O)N(c2ccc3[nH]cnc3c2)C1c1cc(Br)ccc1F (stereo not drawn) [Compound 437, 4-Acetyl-1-(1H-benzoimidazol-5-yl)-5-(5-bromo-2-fluoro-phenyl)-3-hydroxy-1,5-dihydro-pyrrol-2-one]	195 °C		4 nM	118 nM
CC(=O)C1=C(O)C(=O)N(c2ccc3[nH]cnc3c2)C1c1cccc(F)c1F (stereo not drawn) [Compound 350, 4-Acetyl-1-(1H-benzoimidazol-5-yl)-5-(2,3-difluoro-phenyl)-3-hydroxy-1,5-dihydro-pyrrol-2-one]	135 °C		4 nM	30.3 nM

The next lines start with the values.

melting point	Ki (hQC; [1])	IC50 (hQC; read-out: IC50)	IC50 (hQC; [2])	SMILES
184 °C	53.6 nM	233 nM		CC1=C(O)C(=O)N(c2ccc3[nH]cnc3c2)C1c1cc(F)c(F)cc1F (stereo not drawn) [Compound 469, 1-(1H-benzo[d]imidazol-5-yl)-5-(2,4,5-trifluorophenyl)-3-hydroxy-4-methyl-1H-pyrrol-2(5H)-one]
162 to 174 °C	14.6 nM	75 nM		CC1=C(O)C(=O)N(c2ccc3[nH]cnc3c2)C1c1cccc(Cl)c1Cl (stereo not drawn) [Compound 468, 1-(1H-benzo[d]imidazol-5-yl)-5-(2,3-dichlorophenyl)-3-hydroxy-4-methyl-1H-pyrrol-2(5H)-one]
